Patent publication US6878698B2, “Anti-inflammatory androstane derivatives” (Glaxo Group Limited, priority 2001, dated 2005)
Entries after “also recorded” stand apart in the source; their conditions may differ.

How the values were obtained:
lung eosinophilia = assay: Ovalbumin sensitised Brown Norway rat eosinophilia model; type: in vivo; settings: for inhibition of lung eosinophilia: single intra-tracheal dose of 30 μg, suspension in saline, 30 min prior to ovalbumin challenge
Experimental: Pharmacological activity in vivo was assessed in an ovalbumin sensitised Brown Norway rat eosinophilia model. This model is designed to mimic allergen induced lung eosinophilia, a major component of lung inflammation in asthma.

thymus weight = assay: Rat model of thymus involution; type: in vivo; settings: 3 daily IT doses of 100 μg
human hepatocytes = assay: In vitro metabolism in human hepatocytes; type: in vitro ADME; settings: 17-β carboxylic acid (X) the only significant metabolite
rat hepatocytes = assay: In vitro metabolism in rat hepatocytes; type: in vitro ADME; settings: 17-β carboxylic acid (X) the only significant metabolite
[1] = Pharmacokinetics after intra-tracheal dry powder dosing in the pig; type: in vivo; settings: for time after dosing up to which quantifiable in plasma / AUC (0-inf): 1 mg intra-tracheal dry powder; for time after dosing up to which quantifiable in plasma: LC-MS/MS, lower limits of quantitation 10 and 20 pg/mL; for Cmax: 1 mg intra-tracheal dry powder blend in lactose, anaesthetised; for AUC (0-inf): Example 1 value calculated with plasma half-life from IV dosing
Experimental: Serial blood samples were taken for up to 8 h following dosing.

[2] = Pharmacokinetics after intravenous administration in the anaesthetised pig; type: in vivo; settings: mixture of the two compounds IV at 0.1 mg/kg
Text: The clearance of these two glucocortocoids is similar is this experimental pig model.

[3] = Pharmacokinetics after intravenous (IV) and oral dosing in rats; settings: for plasma clearance (in words): in vivo in the rat
in vivo = settings: male, Wistar Han, rat, plasma, iv, 0.1 mg/kg
glucocorticoid receptor = target: T1, glucocorticoid receptor (Homo sapiens, UniProt P04150); assay: Functional in vitro assay of glucocorticoid agonist activity (A549 cells, NF-κB/ELAM promoter sPAP reporter, TNF stimulated); type: cell-based; settings: for EC50: A549 cells, NF-κB responsive sPAP reporter, compound 1 hour at 37° C., then TNF 10 ng/ml for 16 hours
T1 construct: A549 cells stably transfected with a reporter gene containing the NF-κB responsive elements from the ELAM gene promoter; endogenous in cells; host or cells: A549 cells stably transfected with the reporter gene only
T1 sequence (P04150 1-777): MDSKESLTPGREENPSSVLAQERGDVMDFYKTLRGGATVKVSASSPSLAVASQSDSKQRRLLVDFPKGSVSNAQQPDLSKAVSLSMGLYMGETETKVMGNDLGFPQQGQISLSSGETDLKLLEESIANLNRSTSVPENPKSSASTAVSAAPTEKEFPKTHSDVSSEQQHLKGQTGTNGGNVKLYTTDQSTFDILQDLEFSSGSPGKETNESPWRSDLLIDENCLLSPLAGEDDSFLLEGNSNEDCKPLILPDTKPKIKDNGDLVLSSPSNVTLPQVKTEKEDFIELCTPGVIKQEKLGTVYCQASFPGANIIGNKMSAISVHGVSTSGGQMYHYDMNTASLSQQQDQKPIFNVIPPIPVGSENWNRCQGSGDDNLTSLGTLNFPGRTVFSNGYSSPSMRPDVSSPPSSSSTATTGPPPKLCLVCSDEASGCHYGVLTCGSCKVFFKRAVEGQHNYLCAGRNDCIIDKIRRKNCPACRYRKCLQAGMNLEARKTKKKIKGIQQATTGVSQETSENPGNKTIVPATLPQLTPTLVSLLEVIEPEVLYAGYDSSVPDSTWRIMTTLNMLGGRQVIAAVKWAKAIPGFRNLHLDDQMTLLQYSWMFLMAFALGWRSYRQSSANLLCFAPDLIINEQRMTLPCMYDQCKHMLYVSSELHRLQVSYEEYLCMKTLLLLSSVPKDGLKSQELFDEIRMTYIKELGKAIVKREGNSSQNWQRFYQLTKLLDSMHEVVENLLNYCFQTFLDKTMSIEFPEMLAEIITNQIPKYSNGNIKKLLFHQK
Experimental: Pharmacological activity was assessed in a functional in vitro assay of glucocorticoid agonist activity which is generally predictive of anti-inflammatory or anti-allergic activity in vivo.
A549 cells stably transfected with a reporter gene containing the NF-κB responsive elements from the ELAM gene promoter coupled to sPAP (secreted alkaline phosphatase) were treated with test compounds at appropriate doses for 1 hour at 37° C. […] Dose response curves were constructed from which EC50 values were estimated.

[4] = target: T2, glucocorticoid receptor (GR) (Homo sapiens, UniProt P04150); assay: Transactivation (GR): renilla luciferase reporter with glucocorticoid response elements in A549 cells; type: cell-based; settings: GRE renilla luciferase reporter, 1 h compound, then 0.5 ng/ml TNFα, further 15 hours, read-out: Transactivation (GR) ED50
Text: (§1) The glucocorticoid receptor (GR) can function in at least two distinct mechanisms, by upregulating gene expression through the direct binding of GR to specific sequences in gene promoters, and by downregulating gene expression that is being driven by other transcription factors (such as NFκB or AP-1) through their direct interaction with GR.
(§2) The first cell line contains the firefly luciferase reporter gene under the control of a synthetic promoter that specifically responds to activation of the transcription factor NFκB when stimulated with TNFα. The second cell line contains the renilla luciferase reporter gene under the control of a synthetic promotor that comprises 3 copies of the consensus glucocorticoid response element, and which responds to direct stimulation by glucocorticoids. Simultaneous measurement of transactivation and transrepression was conducted by mixing the two cell lines in a 1:1 ratio in 96 well plate (40,000 cells per well) and growing overnight at 37° C. Test compounds were dissolved in DMSO, and added to the cells at a final DMSO concentration of 0.7%. After incubation for 1 h 0.5 ng/ml TNFα (R&D Systems) was added and after a further 15 hours at 37° C., the levels of firefly and renilla luciferase were measured using the Packard Firelite kit following the manufacturers' directions. Dose response curves were constructed from which EC50 values were determined.

[5] = target: T2, glucocorticoid receptor (GR); assay: Transrepression (NFκB): firefly luciferase NFκB reporter in A549 cells stimulated with TNFα; type: cell-based; settings: 1 h compound, then 0.5 ng/ml TNFα, further 15 hours, read-out: Transrepression (NFκB) ED50
Text: as §1, §2

For `C[C@@H]1CC2C3C[C@H](F)C4=CC(=O)C=C[C@]4(C)[C@@]3(F)[C@@H](O)C[C@]2(C)[C@@]1(OC(=O)c1ccco1)C(=O)SCF` (stereo partly drawn) [Example 1, 6α,9α-Difluoro-17α-[(2-furanylcarbonyl)oxy]-11β-hydroxy-16α-methyl-3-oxo-androsta-1,4-diene-17β-carbothioic acid S-fluoromethyl ester], the “inhibition of lung eosinophilia (in words)” value (lung eosinophilia; intra-tracheal suspension in saline 30 min prior to ovalbumin challenge) was “dose dependant inhibition”, the “inhibition of lung eosinophilia” value (lung eosinophilia) was 69% and the “reduction of thymus weight” value (thymus weight) was 67%. For the same compound, the “manner of metabolism (in words)” value (human hepatocytes) was “metabolised in an identical manner to fluticasone propionate”, the “manner of metabolism (in words)” value (rat hepatocytes) was “metabolised in an identical manner to fluticasone propionate” and the “time after dosing up to which quantifiable in plasma” value [1] was “up to 2 hours”. For the same compound, the “Cmax” value ([1]; Pig 1) was 0.117 ng/mL, the “AUC (0-inf)” value ([1]; Pig 1) was 0.254 ng·h/mL and the “Cmax” value ([1]; Pig 2) was 0.081 ng/mL. The “AUC (0-inf)” value ([1]; Pig 2) was 0.221 ng·h/mL, the “systemic exposure compared to fluticasone propionate (in words)” value ([1]; dry powder delivery to the lungs of anaesthetised pigs) was “markedly reduced systemic exposure; also recorded: significantly lower exposure” and the “clearance (in words)” value [2] was “similar”. For the same compound, the “pharmacokinetic parameters following intravenous administration (in words)” value [2] was “the same”, the plasma clearance ([3]; IV 0.1 mg/kg, male Wistar Han rats) was 47.3 mL/min/kg and the “plasma clearance (in words)” value [3] was “approaching hepatic blood flow”.

For `CC1CC2C3CC(F)C4=CC(=O)C=CC4(C)C3(F)C(O)CC2(C)C1(OC(=O)c1ccsc1)C(=O)SCF` (stereo not drawn) [Example 4, 6α,9α-Difluoro-11β-hydroxy-16α-methyl-3-oxo-17α-[(3-thienylcarbonyl)oxy]-androsta-1,4-diene-17β-carbothioic acid S-fluoromethyl ester], the clearance (in vivo) was 49 mL/min/kg and the “plasma clearance (in words)” value [3] was “approaching hepatic blood flow”.

In the case of `Cc1noc(C)c1C(=O)O[C@]1(C(=O)SCF)[C@H](C)C[C@H]2[C@@H]3C[C@H](F)C4=CC(=O)C=C[C@]4(C)[C@@]3(F)[C@@H](O)C[C@@]21C` [Example 10, 6α,9α-Difluoro-17α-[(3,5-dimethylisoxazole-4-carbonyl)oxy]-11β-hydroxy-16α-methyl-3-oxo-androsta-1,4-diene-17β-carbothioic acid S-fluoromethyl ester], the EC50 (glucocorticoid receptor) is reported as 1 nM.

Compound `C[C@@H]1C[C@H]2[C@@H]3C[C@H](F)C4=CC(=O)C=C[C@]4(C)[C@@]3(F)[C@@H](O)C[C@]2(C)[C@@]1(OC(=O)c1cc(Cl)sc1Cl)C(=O)SCF` [Example 14, 17α-[(2,5-Dichlorothiophene-3-carbonyl)oxy]-6α,9α-difluoro-11β-hydroxy-16α-methyl-3-oxo-androsta-1,4-diene-17β-carbothioic acid S-fluoromethyl ester] has an EC50 (glucocorticoid receptor) of 2 nM.

With `Cc1ccoc1C(=O)OC1(C(=O)SCF)C(C)CC2C3CC(F)C4=CC(=O)C=CC4(C)C3(F)C(O)CC21C` (stereo not drawn) [Example 19, 6α,9α-Difluoro-11β-hydroxy-16α-methyl-17α-[(3-methylfuran-2-carbonyl)oxy]-3-oxo-androsta-1,4-diene-17β-carbothioic acid S-fluoromethyl ester] the clearance (in vivo) was 48 mL/min/kg and the “plasma clearance (in words)” value [3] was “approaching hepatic blood flow”.

Work on `Cc1nc(C)c(C(=O)O[C@]2(C(=O)SCF)[C@H](C)C[C@H]3[C@@H]4C[C@H](F)C5=CC(=O)C=C[C@]5(C)[C@@]4(F)[C@@H](O)C[C@@]32C)s1` [Example 23, 6α,9α-Difluoro-17α-[(2,4-dimethyl-1,3-thiazole-5-carbonyl)oxy]-11β-hydroxy-16α-methyl-3-oxo-androsta-1,4-diene-17 β-carbothioic acid S-fluoromethyl ester] yielded an EC50 (glucocorticoid receptor) of 17 nM.

In the case of `Cc1cc(C(=O)OC2(C(=O)SCF)C(C)CC3C4CC(F)C5=CC(=O)C=CC5(C)C4(F)C(O)CC32C)no1` (stereo not drawn) [Example 24, 6α,9α-Difluoro-11β-hydroxy-16α-methyl-17α-[(5-methylisoxazole-3-carbonyl)oxy]-3-oxo-androsta-1,4-diene-17β-carbothioic acid S-fluoromethyl ester], the clearance (in vivo) is reported as 47 mL/min/kg and the “plasma clearance (in words)” value [3] is reported as “approaching hepatic blood flow”.

With `Cc1cc(C(=O)OC2(C(=O)SCF)C(C)CC3C4CC(F)C5=CC(=O)C=CC5(C)C4(F)C(O)CC32C)on1` (stereo not drawn) [Example 25, 6α,9α-Difluoro-11β-hydroxy-16α-methyl-17α-[(3-methylisoxazole-5-carbonyl)oxy]-3-oxo-androsta-1,4-diene-17β-carbothioic acid S-fluoromethyl ester] the clearance (in vivo) was 46 mL/min/kg and the “plasma clearance (in words)” value [3] was “approaching hepatic blood flow”.

For `CC1CC2C3CC(F)C4=CC(=O)C=CC4(C)C3(F)C(O)CC2(C)C1(OC(=O)c1ccon1)C(=O)SCF` (stereo not drawn) [Example 28, 6α,9α-Difluoro-11β-hydroxy-17α-[(isoxazole-3-carbonyl)oxy]-16α-methyl-3-oxo-androsta-1,4-diene-17β-carbothioic acid S-fluoromethyl ester], the clearance (in vivo) was 51 mL/min/kg and the “plasma clearance (in words)” value [3] was “approaching hepatic blood flow”.

Work on `Cc1ncsc1C(=O)OC1(C(=O)SCF)C(C)CC2C3CC(F)C4=CC(=O)C=CC4(C)C3(F)C(O)CC21C` (stereo not drawn) [Example 41, 6α,9α-Difluoro-11β-hydroxy-16α-methyl-17α-[(4-methyl-1,3-thiazole-5-carbonyl)oxy]-3-oxo-androsta-1,4-diene-17β-carbothioic acid S-fluoromethyl ester] yielded a clearance (in vivo) of 42 mL/min/kg.

With `CCC(=O)O[C@]1(C(=O)SCF)[C@H](C)C[C@H]2[C@@H]3C[C@H](F)C4=CC(=O)C=C[C@]4(C)[C@@]3(F)[C@@H](O)C[C@@]21C` [Fluticasone propionate, 6α, 9α-Difluoro-17α-(1-oxopropoxy)-11β-hydroxy-16α-methyl-3-oxo-androsta-1,4-diene-17β-carbothioic acid S-fluoromethyl ester, reference compound] the “inhibition of lung eosinophilia” value (lung eosinophilia) was 41%, the “reduction of thymus weight” value (thymus weight) was 78% and the “time after dosing up to which quantifiable in plasma” value [1] was “up to 8 hours”. The “clearance (in words)” value [2] was “similar” and the “pharmacokinetic parameters following intravenous administration (in words)” value [2] was “the same”.

For `C[C@@H]1C[C@H]2[C@@H]3C[C@H](F)C4=CC(=O)C=C[C@]4(C)[C@@]3(F)[C@@H](O)C[C@]2(C)[C@@]1(OC(=O)c1ccco1)C(=O)O` [Metabolite (X)], the “fold less active than the parent compound” value (glucocorticoid receptor; in vitro functional glucocorticoid agonist assays, relative to Example 1) was over 1000 fold, the EC50 [4] was over 250 nM and the EC50 [5] was over 1000 nM.
